Consider two compounds from patent US11384071B2, “Inhibitors of mechanotransduction to treat pain and modulate touch perception” (Max-Delbrück-Centrum für Molekulare Medizin in der …, priority 2016, dated 2022).

One assay addresses T1, STOML3 (Mus musculus, UniProt Q6PE84).
T1 construct: expressed in transfected cells; host or cells: HEK-293
T1 sequence (Q6PE84 1-287): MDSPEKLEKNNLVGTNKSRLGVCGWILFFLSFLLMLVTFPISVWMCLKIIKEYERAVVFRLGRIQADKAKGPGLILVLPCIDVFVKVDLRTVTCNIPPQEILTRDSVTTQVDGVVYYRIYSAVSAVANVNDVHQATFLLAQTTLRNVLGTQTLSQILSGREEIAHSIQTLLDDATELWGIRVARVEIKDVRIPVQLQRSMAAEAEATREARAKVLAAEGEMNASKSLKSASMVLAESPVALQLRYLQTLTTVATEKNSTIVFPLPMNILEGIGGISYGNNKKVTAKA
Nature of the assay: BiFC assay of STOML3 self-association in HEK-293 cells. The assay is classed as cell-based. The conditions noted are these: for STOML3 self-association based on the slope of YFP signal development: primary screen of about 35000 small molecules, each at 10 M (so in the source). On the procedure: HEK-293 cells were cultured in T-150 flasks to approximately 70% confluence; cells were co-transfected with plasmids encoding STOML3-VC and STOML3-VN using Fugene-HD, as per manufacturer's instructions. The transfection reaction was allowed to proceed for 8 h before cells were recovered from the dishes, resuspended in DMEM media containing 25 mM HEPES and lacking phenol red. Cells were plated in PLL-coated 384 well plates using an automated dispenser (EL406 Microplate Washer Dispenser). Plates already contained compound from the ChemBioNet compound library1. The final assay volume was 40 μl cells with 10 μM of compound. […] Development of the YFP fluorescence signal was monitored overnight (15 h), with readings taken every 3 h (ex: 515±8 nm, em: 535±8 nm). In between readings cells were maintained at 37° C., 5% CO2, and 95% humidity. The overnight monitoring of signal development was performed on a Freedom Evo workstation equipped with a robotic arm for plate transport and a Safirell plate reader for fluorescence measurement (Tecan Group Ltd, Männedorf, Switzerland), and an integrated STX44-ICSA automated plate incubator (Liconic AG, Mauren, Liechtenstein) for plate storage in between measurements. Experiments were repeated with 20 plates each day until the entire compound library had been screened and data was normalized to in-plate controls.
Compounds of interest were selected from the slope of YFP-signal vs time. Each well was compared to the average slope of in-plate positive controls (normalized percent activity), and compared to the mean and standard deviation of all samples on a plate (without the controls), giving a Z score as a measure of statistical significance. Initially, compounds were re-screened in triplicate to confirm whether or not the noted differences were repeatable; compounds with confirmed activity were selected for further analysis.
(§1) In mammals STOML3 belongs to a family of five structurally conserved membrane proteins, including stomatin, STOML1, STOML2, and podocin^10,12-16, all of which self-associate via their stomatin-domain (FIG. 8a)^10. Self-association of stomatin-domain proteins can be monitored in HEK293 cells using Bimolecular Fluorescence Complementation (BiFC) whereby N- and C-terminal halves of the YFP molecule are tagged to the prey and bait protein STOML3^2,17 (FIG. 1a). Irreversible association of the YFP fragments produces fluorescence that increases linearly over time (FIG. 1b).

In a further assay the target is T2, STOML1 (Mus musculus, UniProt Q8CI66).
T2 construct: expressed in transfected cells; host or cells: HEK293 (general statement on the BiFC assay)
T2 sequence (Q8CI66 whole entry): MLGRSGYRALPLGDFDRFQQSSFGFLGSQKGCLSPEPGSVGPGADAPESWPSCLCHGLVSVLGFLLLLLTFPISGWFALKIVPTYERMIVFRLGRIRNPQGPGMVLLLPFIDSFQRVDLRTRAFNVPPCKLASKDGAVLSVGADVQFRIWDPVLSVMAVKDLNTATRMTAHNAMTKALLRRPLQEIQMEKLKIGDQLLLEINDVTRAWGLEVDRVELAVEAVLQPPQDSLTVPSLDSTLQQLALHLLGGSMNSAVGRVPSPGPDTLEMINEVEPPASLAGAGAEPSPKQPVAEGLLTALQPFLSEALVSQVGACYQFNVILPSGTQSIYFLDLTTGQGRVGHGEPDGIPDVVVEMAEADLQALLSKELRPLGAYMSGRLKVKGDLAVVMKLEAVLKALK
Nature of the assay: BiFC assay of STOML1 self-association. The assay is classed as cell-based. Here is the method: (§2) FIG. 8: Effects of STOML3 modulating molecules on other Stomatin-domain proteins. (a) BiFC signal development observed when cells were transfected with Stomatin-VC/-VN, STOML1-VC/-VN, STOML2-VC/-VN, STOML3-VC/-VN or Podocin-VC/-VN expression constructs respectively. […] (b) OB-1 was tested at two different concentrations (2 μm and 20 μm) using the BiFC assay where wild type STOML3 was used as both bait and prey.
as §1

The target of the next assay is T3, Podocin (Mus musculus, UniProt Q91X05).
T3 construct: expressed in transfected cells; host or cells: HEK293 (general statement on the BiFC assay)
T3 sequence (Q91X05 whole entry): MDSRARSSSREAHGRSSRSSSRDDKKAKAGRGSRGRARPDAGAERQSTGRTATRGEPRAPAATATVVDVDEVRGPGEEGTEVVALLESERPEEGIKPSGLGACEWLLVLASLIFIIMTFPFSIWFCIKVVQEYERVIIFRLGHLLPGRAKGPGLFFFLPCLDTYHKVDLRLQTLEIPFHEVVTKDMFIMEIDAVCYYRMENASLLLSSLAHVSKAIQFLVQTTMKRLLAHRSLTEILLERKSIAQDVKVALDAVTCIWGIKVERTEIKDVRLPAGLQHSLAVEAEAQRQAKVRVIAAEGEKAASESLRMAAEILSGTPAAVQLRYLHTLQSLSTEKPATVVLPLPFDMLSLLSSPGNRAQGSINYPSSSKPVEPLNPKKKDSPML
Nature of the assay: BiFC assay of podocin self-association. In kind it is cell-based. Here is the method:
as §2, §1

The test system of the next assay is ASIC3. Nature of the assay: pH-gated ASIC3 currents and stomatin modulation in CHO cells. In kind it is cell-based. Here is the method:
To test the effect of compounds on stomatin modulation of ASIC currents CHO cells were transfected with vectors encoding Stomatin and ASIC3, in a ratio of 4:1 using lipofectamine, as per manufacturer's instructions. Cells were incubated with 20 μM OB-1 for 3 hours in extracellular buffer (see above), and OB-1 was maintained in the media during electrophysiological experiments. ASIC3 channels were gated by applying solutions of pH6 and pH4, and both the transient and sustained peak current density was measured.

A further assay deals with naive mice. Nature of the assay: Paw withdrawal threshold and radiant heat latency in naive mice. The settings on record: intraplantar 250-500 pmol per paw. In kind it is in vivo, mouse. From the text: (§3) Mice were allowed to habituate to the testing apparatus (acrylic chambers 10×10 cm in size, suspended above a wired mesh grid) one hour prior to behavioral testing. Only once the subject was at rest and not moving, calibrated von-Frey hair monofilaments (Aesthesio® set of 20 monofilaments, Ugo Basil) were applied to the plantar surface of the hind paw in order to deliver target forces from 0.008 grams to 4 grams increasing in an approximately logarithmic scale. A single stimulus indicated by a slight bending of the filament lasted for two seconds unless the mouse withdrew its paw. In order to measure mechanosensitivity the up-and-down method described by Chaplan^13 was adapted as follows: Testing began with a filament delivering a target force of 0.4 g, but filaments were applied three times. A positive response was noted if the subject withdrew the paw to all three filament applications, so that the successively smaller filament was presented next. […] Paw withdrawal thresholds were calculated as median of 23 to 30 determined turning points of the particular force stimuli applied to the subject.
Drug injections of OB-1 or DMSO alone were dissolved in Ringer's solution (in mM: 135 NaCl, 5 KCl, 5 HEPES, 1.8 CaCl2), 1 MgCl2) to make the OB-1 and vehicle solution. […]

In a further assay the test system is NGF-injected mice. The assay can be described thus: NGF-induced hyperalgesia. The assay is classed as in vivo, mouse.
Description: as §3

For the next assay, the system named is diabetic mice (STZ). Nature of the assay: Streptozotocin (STZ) painful diabetic neuropathy model, von Frey. The assay is classed as in vivo, mouse.
For assay [1], the system named is 79 receptors and ion channels. Nature of the assay: Commercial in vitro pharmacology panel (cerep). In kind it is binding. The settings on record: 20 μM, panel of 79 receptors and ion channels. On the procedure:
We next interrogated whether local application of OB-1 can ameliorate tactile-evoked pain behavior in neuropathic models. […] We decided to test this idea more directly by testing the effects of local OB-1 on the mechanical sensitivity of Stoml3^−/− mice with CCI. […] Off-target effects are an issue for any biologically active small molecule. We therefore tested the effects of 20 μM OB-1 in a commercially available in vitro pharmacology panel (www.cerep.fr) consisting of 79 receptors and ion channels.

Description for diabetic mice (STZ): Eight week old C57Bl/6 mice were used for diabetes experiments. Diabetes was induced. Briefly, 6 consecutive intraperitoneal injections of streptozotocin (STZ, Sigma-Aldrich, #S0130) were given with 24 h intervals at 60 mg/Kg body weight in citrate buffer (0.05M, pH 4.5) to induce diabetes. Blood glucose was maintained between 400 and 500 mg/dL throughout the experimental period. Mechanical sensitivity was measured in regular intervals and only those mice showing increased sensitivity to von Frey filaments as compared with basal sensitivity were selected for testing the effects of OB-1.
Von Frey filaments of increasing strength (0.07, 0.16, 0.4, 0.6, 1.0 and 1.4 g) are applied 5 times with at least 1 min interval to intraplantar surface of hind paws to test the mechanical sensitivity. […] Frequency of positive responses was recorded out of 5 stimuli and percent of withdrawal frequency was calculated. Threshold was calculated as the von Frey filament strength required to elicit 60% withdrawal frequency. Vehicle or OB-1 (approximately 20 μl solution, 250 pmol per paw) was injected subcutaneously into intraplantar surface of diabetic mice under mild isoflurane anesthesia and mechanical sensitivity was measured from both injected (ipsilateral) and non-injected (contralateral) paws at 4 and 24 h post-injection.

For `CCOC(=O)c1c(-c2ccccc2)oc2ccc(Oc3c([N+](=O)[O-])ncn3C)cc12` [OB-1, Ethyl 5-((1-methyl-4-nitro-1H-imidazol-5-yl)oxy)-2-phenylbenzofuran-3-carboxylate], the “normalized slope of BiFC signal development” value at STOML3 (2 μm and 20 μm, wild type STOML3 as bait and prey) was “significantly reduced”. The BiFC signal result at STOML3 (lower OB-1 concentration, 2 M (so in the source)) is listed as “inhibited”. For the same compound, the “STOML3 self-association based on the slope of YFP signal development” value at STOML3 is given as “most effective inhibitory compounds”. The “self-association of STOML1 (BiFC)” value at STOML1 is given as “effective inhibitor”. The “oligomerization of Podocin (BiFC)” value at Podocin is given as “does not affect”. Further, in the assay with ASIC3 (CHO cells expressing ASIC3, 20 μm), the “ASIC3-mediated pH-evoked currents (transient and sustained)” value is given as “no effect”. For the same compound, in the assay on ASIC3 (CHO cells, 20 μM, 3 hours), the “negative modulation of ASIC3 mediated currents by mouse stomatin” value was “no detectable effect”. In the assay on naive mice, the “paw withdrawal thresholds to mechanical stimuli” value is “no change” and the “withdrawal latency for radiant heat stimuli” value is given as “no change”. In the assay with NGF-injected mice (local intraplantar), the “mechanical hypersensitivity after NGF” value is “not reversed”. In addition, the NGF-induced thermal hyperalgesia result in the assay on NGF-injected mice (local treatment, systemic NGF-injection) was “not alleviate”. Further, the mechanical hypersensitivity entry in the assay on diabetic mice (STZ) (250 pmol per paw, 4 h after treatment) is “substantially reversed”. The “mechanical hypersensitivity, mean 60% withdrawal threshold” value in the assay with diabetic mice (STZ) (24 h after a single treatment) is given as “returned to pre-drug treatment levels”. Besides, the “receptors with significant inhibition of specific ligand binding” value in assay [1] is on record as 6/79.
Turning to `Cc1ccnc(NC(=O)CSc2nnc3c4ccccc4n(Cc4ccccc4)c3n2)c1` [OB-2], the “STOML3 self-association based on the slope of YFP signal development” value on STOML3 was “most effective inhibitory compounds”.
